In patent US9156796B2, “Benzoimidazole-carboxylic acid amide derivatives as APJ receptor modulators” (SANOFI, priority 2013, dated 2015):

The compounds below were run against T1, human apelin receptor (Homo sapiens, UniProt P35414) (assay: Determination of agonism on the human apelin receptor by a calcium fluorescence assay (FLIPR)). Conditions: HEK293 cells stably transfected with human apelin receptor and Giaq protein, Fluo-4 calcium fluorescence, read-out: EC50 (APJ agonism).
T1 construct: expressed in transfected cells
T1 sequence (P35414 1-380): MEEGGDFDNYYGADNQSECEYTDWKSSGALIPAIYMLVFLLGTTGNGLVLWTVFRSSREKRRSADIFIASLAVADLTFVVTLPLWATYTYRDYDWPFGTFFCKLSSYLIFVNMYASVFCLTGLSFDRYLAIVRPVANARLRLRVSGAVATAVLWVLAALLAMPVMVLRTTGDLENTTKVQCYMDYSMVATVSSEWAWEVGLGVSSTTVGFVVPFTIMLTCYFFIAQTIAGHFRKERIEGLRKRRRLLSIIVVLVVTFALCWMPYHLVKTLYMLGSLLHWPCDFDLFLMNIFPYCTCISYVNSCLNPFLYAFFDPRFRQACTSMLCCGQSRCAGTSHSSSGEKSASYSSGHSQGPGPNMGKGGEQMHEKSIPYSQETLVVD
Format: cell-based
How it was run: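 Agonist EC50s come from peak intracellular calcium transients recorded by FLIPR Tetra, scaled to the 1 μM apelin-13 maximum per plate. Test system: HEK293 stably transfected with human apelin receptor plus Giaq, Fluo-4-loaded (4 μM, 1 h, 37 °C, pH 7.4 buffer with probenecid); ≥7 concentrations, triplicates.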

Structure (SMILES)	EC50
CCC(CC)n1c(Cc2cccs2)nc2cc(C(=O)NC(CC(C)C)c3nccs3)ccc21 (stereo not shown) [Example 479, 1-(1-Ethyl-propyl)-2-thiophen-2-ylmethyl-1H-benzoimidazole-5-carboxylic acid (3-methyl-1-thiazol-2-yl-butyl)-amide]	16.9 µM
CCC(CC)n1c(Cc2cccs2)nc2cc(C(=O)NC(CC(C)C)c3nc(C)c(C)s3)ccc21 (stereo not shown) [Example 480, 1-(1-Ethyl-propyl)-2-thiophen-2-ylmethyl-1H-benzoimidazole-5-carboxylic acid [1-(4,5-dimethyl-thiazol-2-yl)-3-methyl-butyl]-amide]	20 µM
CCC(CC)n1c(Cc2cccs2)nc2cc(C(=O)NC(CC(C)C)c3nnc(C)o3)ccc21 (stereo not shown) [Example 481, 1-(1-Ethyl-propyl)-2-thiophen-2-ylmethyl-1H-benzoimidazole-5-carboxylic acid [3-methyl-1-(5-methyl-[1,3,4]oxadiazol-2-yl)-butyl]-amide]	3.48 µM
CCC(CC)n1c(Cc2cccs2)nc2cc(C(=O)N[C@H](c3nnc(COC)[nH]3)C(C)C)ccc21 [Example 482, 1-(1-Ethyl-propyl)-2-thiophen-2-ylmethyl-1H-benzoimidazole-5-carboxylic acid [(S)-1-(5-methoxymethyl-2H-[1,2,4]triazol-3-yl)-2-methyl-propyl]-amide]	15.7 µM

Results, then the compound that gave them:

EC50	Structure (SMILES)
2.08 µM	CCC(CC)n1c(Cc2cccs2)nc2cc(C(=O)N[C@H](CSc3nnc[nH]3)CC(C)C)ccc21 [Example 483, 1-(1-Ethyl-propyl)-2-thiophen-2-ylmethyl-1H-benzoimidazole-5-carboxylic acid [(S)-3-methyl-1-(4H-[1,2,4]triazol-3-ylsulfanylmethyl)-butyl]-amide]
0.014 µM	CCC(CC)n1c(Cc2cccs2)nc2cc(C(=O)N[C@@H](CC(C)C)CS(=O)(=O)c3nnc[nH]3)ccc21 [Example 484, 1-(1-Ethyl-propyl)-2-thiophen-2-ylmethyl-1H-benzoimidazole-5-carboxylic acid [(S)-3-methyl-1-(4H-[1,2,4]triazole-3-sulfonylmethyl)-butyl]-amide]
0.813 µM	CCC(CC)n1c(Cc2cccs2)nc2cc(C(=O)N[C@@H](CC(C)C)CS(=O)(=O)NC)ccc21 [Example 485, 1-(1-Ethyl-propyl)-2-thiophen-2-ylmethyl-1H-benzoimidazole-5-carboxylic acid ((S)-3-methyl-1-methylsulfamoylmethyl-butyl)-amide]
